Results taken from US20080187935A1, “Homo and Heterodimer Proteins of the Abcg Family, Methods For Detection and Screening Modulators Thereof” (priority 2004, published 2008).
Blank lines part the entries; values can stand above or below the molecule they belong to.

Assays:
[1] = target: T1, human ABCG1 (Homo sapiens, UniProt P45844); assay: vanadate-sensitive ATPase activity of ABCG1 in isolated Sf9 membranes; type: biochemical; details: for effect on ABCG1 ATPase activity (in words): Sf9 membranes, 3.3 mM MgATP
T1 construct: made in house; host or cells: Sf9 insect cells (baculovirus), isolated membranes
Procedure: (§1) Recombinant baculoviruses carrying transporter cDNA were generated with BaculoGold Transfection Kit (Pharmingen), in accordance with the manufacturer's protocol. The titer of virus supernatants were determined in order to express the same amount of each proteins, Sf9 (Spodoptera frugiperda ovarian) cells (Invitrogen) were infected and cultured according to the procedures described previously (19). Briefly, about 3×10^7 cells were infected with 3 ml of virus supernatant in case of homodimer expression and 1.5-1.5 ml of virus supernatants in case of heterodimer expression. The virus-infected Sf9 cells were cultured in T150 culture flasks with 30 ml of medium for the times indicated. The cells were harvested by scraping them into Tris-mannitol buffer (50 mM Tris, pH 7.0, with HCl, containing 300 mM mannitol and 0.5 mM phenylmethylsulfonyl fluoride).
For membrane preparation the cells were lysed and homogenized using a glass-Teflon tissue homogenizer in TMEP (50 mM Tris, pH 7.0, with HCl, containing 50 mM mannitol, 2 mM EGTA-Tris, 10 µg/ml leupeptin, 8 µg/ml aprotinin, 0.5 mM phenylmethylsulfonyl fluoride, and 2 mM dithiothreitol), and the undisrupted cells and nuclear debris were removed by centrifugation at 500×g for 10 min. The supernatant fluid was then centrifuged for 60 min at 100,000×g and the pellet containing the membranes resuspended in TMEP at a protein concentration of 2-3 mg/ml. All procedures were carried out at 4° C., and the membranes were stored at −70° C.
(§2) The ATPase activity of the isolated Sf9 cell membranes was estimated by measuring inorganic phosphate liberation. Membrane suspensions (about 20 μg of membrane protein, as determined by a modified Lowry method) were incubated at 37° C. for 20-min in 0.15 ml of a medium containing 40 mM MOPS-Tris (pH 7.0), 0.5 mM EGTA-Tris (pH 7.0), 2 mM dithiothreitol, 50 mM KCl, 1 mM ouabain and 5 mM sodium azide, and the ATPase reaction was started by the addition of 3.3 mM MgATP. The indicated drugs (obtained from Sigma) were added in dimethyl sulfoxide. The final concentration of dimethyl sulfoxide in the assay medium was 1%. […] The reactions were stopped by the addition of 0.1 ml of 5% SDS solution and the amount of inorganic phosphate determined immediately. Inorganic phosphate was measured by colorimetric reaction (19). The points plotted in the figures indicate the means of triplicate determinations.

[2] = target: T2, ABCG2R482G (Homo sapiens, UniProt Q9UNQ0, R482G); details: Özvegy C et al., 2001, cited from earlier work
T2 construct: host or cells: Sf9 membranes
T2 sequence (Q9UNQ0 1-655 R482G): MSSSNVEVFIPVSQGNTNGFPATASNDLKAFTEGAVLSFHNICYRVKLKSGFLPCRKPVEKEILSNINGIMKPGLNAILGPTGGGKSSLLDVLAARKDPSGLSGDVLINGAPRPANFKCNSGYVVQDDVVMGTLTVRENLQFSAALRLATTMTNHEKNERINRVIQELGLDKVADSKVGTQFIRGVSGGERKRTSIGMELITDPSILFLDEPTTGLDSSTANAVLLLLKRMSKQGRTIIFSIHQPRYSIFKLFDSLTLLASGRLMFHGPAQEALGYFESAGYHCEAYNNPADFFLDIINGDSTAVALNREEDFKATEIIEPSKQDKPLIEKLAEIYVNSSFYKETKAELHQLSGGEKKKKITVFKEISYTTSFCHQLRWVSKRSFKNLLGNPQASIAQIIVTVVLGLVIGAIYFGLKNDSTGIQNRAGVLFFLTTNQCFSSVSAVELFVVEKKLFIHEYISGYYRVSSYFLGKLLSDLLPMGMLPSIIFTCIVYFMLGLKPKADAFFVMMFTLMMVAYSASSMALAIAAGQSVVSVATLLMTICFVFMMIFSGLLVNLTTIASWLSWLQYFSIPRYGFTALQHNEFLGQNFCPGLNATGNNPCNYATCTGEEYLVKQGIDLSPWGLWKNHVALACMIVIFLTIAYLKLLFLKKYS

[3] = target: T3, human ABCG4 (Homo sapiens, UniProt Q9H172); assay: vanadate-sensitive ATPase activity of ABCG4 in isolated Sf9 membranes; type: biochemical
T3 construct: made in house; host or cells: Sf9 insect cells (baculovirus), isolated membranes; cDNA from I.M.A.G.E. clone 1537140
Procedure: Recombinant baculoviruses carrying transporter cDNA were generated with BaculoGold Transfection Kit (Pharmingen), in accordance with the manufacturer's protocol. The titer of virus supernatants were determined in order to express the same amount of each proteins, Sf9 (Spodoptera frugiperda ovarian) cells (Invitrogen) were infected and cultured according to the procedures described previously (19). Briefly, about 3×10^7 cells were infected with 3 ml of virus supernatant in case of homodimer expression and 1.5-1.5 ml of virus supernatants in case of heterodimer expression. The virus-infected Sf9 cells were cultured in T150 culture flasks with 30 ml of medium for the times indicated. […] The supernatant fluid was then centrifuged for 60 min at 100,000×g and the pellet containing the membranes resuspended in TMEP at a protein concentration of 2-3 mg/ml. All procedures were carried out at 4° C., and the membranes were stored at −70° C. The ATPase activity of the isolated Sf9 cell membranes was estimated by measuring inorganic phosphate liberation. […] The indicated drugs (obtained from Sigma) were added in dimethyl sulfoxide. The final concentration of dimethyl sulfoxide in the assay medium was 1%. […] The reactions were stopped by the addition of 0.1 ml of 5% SDS solution and the amount of inorganic phosphate determined immediately. Inorganic phosphate was measured by colorimetric reaction (19). […]

[4] = target: T4, ABCG1K124M (Homo sapiens, UniProt P45844, K124M); assay: ATPase activity of catalytic site mutant ABCG1K124M in Sf9 membranes; type: biochemical; details: data not shown
T4 construct: made in house; host or cells: Sf9 insect cells (baculovirus), isolated membranes
Procedure: as §1, with “The cells were harvested by scraping them into Tris-mannitol buffer (50 mM Tris, pH 7.0, with HCl, containing 300 mM mannitol and 0.5 mM phenylmethylsulfonyl fluoride).” left out
as §2, with “MgATP.” for “MgATP. The indicated drugs (obtained from Sigma) were added in dimethyl sulfoxide. The final concentration of dimethyl sulfoxide in the assay medium was 1%.”, “The points plotted in the figures indicate the means of triplicate determinations.” left out

[5] = target: T5, ABCG1/ABCG4 (Homo sapiens, UniProt P45844+Q9H172); assay: ATPase activity of co-expressed ABCG1/ABCG4 in Sf9 membranes; type: biochemical; details: various concentrations, data not shown
T5 construct: made in house; host or cells: Sf9 insect cells co-infected with both baculoviruses, isolated membranes
Procedure: as §1, with “The cells were harvested by scraping them into Tris-mannitol buffer (50 mM Tris, pH 7.0, with HCl, containing 300 mM mannitol and 0.5 mM phenylmethylsulfonyl fluoride).” left out
as §2, with “MgATP.” for “MgATP. The indicated drugs (obtained from Sigma) were added in dimethyl sulfoxide. The final concentration of dimethyl sulfoxide in the assay medium was 1%.”, “The points plotted in the figures indicate the means of triplicate determinations.” left out

T3 sequence (Q9H172 whole entry): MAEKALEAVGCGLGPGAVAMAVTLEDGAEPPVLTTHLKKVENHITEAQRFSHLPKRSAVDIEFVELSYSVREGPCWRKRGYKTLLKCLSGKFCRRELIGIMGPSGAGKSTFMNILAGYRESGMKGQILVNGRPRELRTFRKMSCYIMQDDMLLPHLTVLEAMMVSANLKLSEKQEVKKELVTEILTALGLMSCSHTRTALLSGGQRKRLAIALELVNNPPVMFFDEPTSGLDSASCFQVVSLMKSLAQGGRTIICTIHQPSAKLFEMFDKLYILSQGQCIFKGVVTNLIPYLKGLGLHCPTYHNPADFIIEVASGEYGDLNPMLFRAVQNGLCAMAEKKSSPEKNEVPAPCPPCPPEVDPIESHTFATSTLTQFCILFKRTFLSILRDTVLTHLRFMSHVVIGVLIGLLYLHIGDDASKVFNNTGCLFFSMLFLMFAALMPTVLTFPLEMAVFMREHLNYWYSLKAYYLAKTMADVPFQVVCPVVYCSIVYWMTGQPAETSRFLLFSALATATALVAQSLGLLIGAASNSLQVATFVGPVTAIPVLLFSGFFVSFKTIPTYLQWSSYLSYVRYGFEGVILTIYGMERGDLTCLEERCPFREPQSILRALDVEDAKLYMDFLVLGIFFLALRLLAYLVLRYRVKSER

Ki ([1]; inhibition of ABCG1 ATPase activity): ~0.5 µM
Molecule: NC(=NCc1ccccc1)NC(=O)c1nc(Cl)c(N)nc1N [Benzamil, benzamil]

Molecule: cyclosporin A
effect on ABCG1 ATPase activity (in words) [1]: inhibited ABCG1 ATPase activity at low concentrations

Molecule: Nc1ncnc2c1ncn2[C@@H]1O[C@H](COP(=O)(O)OP(=O)(O)OP(=O)(O)O)[C@@H](O)[C@H]1O [ATP]
Km ([1]; with or without 100 μM rhodamine123, read-out: Km for ATP): ~500 µM | Km ([2]; read-out: Km for ATP): ~600 µM

Molecule: rhodamine123
increase of ATPase activity of ABCG1 ([1]; 20 μM rhodamine123): increased almost two fold | rhodamine123 stimulated ATPase activity ([1]; ABCG1 co-expressed with β-Gal, 100 μM rhodamine123, units = nanomoles Pi/mg membrane protein/min, basal 19.2±1.24, SEM, n=3): 33.6±0.65 units | effect on ABCG1 ATPase activity (in words) [1]: substantially stimulate | EC50 ([1]; stimulation of ABCG1 ATPase activity, read-out: Kact): ~10 µM | effect on ABCG4 ATPase activity (in words) [3]: no effect | effect on ABCG1K124M ATPase activity (in words) [4]: negligible | stimulation of ABCG2R482G mutant ATPase activity [2]: about 1.4 fold

Molecule: COc1ccc2c3c([nH]c2c1)[C@H](CC(C)C)N1C(=O)[C@H](CCC(=O)OC(C)(C)C)NC(=O)[C@@H]1C3 [Ko143]
effect on ABCG1 ATPase activity (in words) [1]: no effect

effect on ABCG1 ATPase activity (in words) [1]: inhibited ABCG1
Molecule: N[C@@H](Cc1cc(I)c(Oc2cc(I)c(O)c(I)c2)c(I)c1)C(=O)O [L-thyroxine]

effect on ABCG1 ATPase activity (in words) [1]: could not detect a change in activity | effect on ABCG4 ATPase activity (in words) [3]: could not detect a change in activity | effect on ATPase activity of co-expressed ABCG1/ABCG4 (in words) [5]: could not detect a change in activity
Molecule: Nc1c(O)cccc1C(=O)C[C@H](N)C(=O)O [3-OH kynurenine, 3-OH-kynurenine]
